Species on record: Rattus norvegicus
Assay: DrugMatrix - Regimen: Daily Repeat
Format: toxicity, organism-based, Sprague-Dawley
Design: regimen Daily Repeat, gender Male, age 6-8 weeks
Settings: in vivo, po, […], route oral GAVAGE, dose 1.6 mg/Kg, dose level High, vehicle 100 % WATER; for BASOPHIL / EOSINOPHIL / ERYTHROCYTE COUNT / HEMATOCRIT / HEMOGLOBIN / LEUKOCYTE COUNT / LYMPHOCYTE / MEAN CORPUSCULAR HEMOGLOBIN / MEAN CORPUSCULAR HEMOGLOBIN CONCENTRATION / MEAN CORPUSCULAR VOLUME / MONOCYTE / NEUTROPHIL / PLATELET COUNT: tissue Blood; for ALANINE AMINOTRANSFERASE / ALBUMIN / ALKALINE PHOSPHATASE / ASPARTATE AMINOTRANSFERASE / BLOOD UREA NITROGEN / CARBON DIOXIDE / CHLORIDE / CHOLESTEROL / CREATINE PHOSPHOKINASE / CREATININE / GLUCOSE / LACTATE DEHYDROGENASE / LIPASE / PHOSPHORUS / POTASSIUM / SODIUM / TOTAL BILIRUBIN / TOTAL PROTEIN / URIC ACID: tissue Plasma

Compound: O=[Se](=O)([O-])[O-].[Na+].[Na+] [SODIUM SELENATE]
- BASOPHIL (96 h, time 4 day): 0.33%
- EOSINOPHIL (96 h, time 4 day): 0.73%
- ERYTHROCYTE COUNT (96 h, time 4 day): 6.6 x10E6/uL
- HEMATOCRIT (96 h, time 4 day): 40.23%
- HEMOGLOBIN (96 h, time 4 day): 12.93 G/DL
- LEUKOCYTE COUNT (96 h, time 4 day): 11.54 x10E3/uL
- LYMPHOCYTE (96 h, time 4 day): 85%
- MEAN CORPUSCULAR HEMOGLOBIN (96 h, time 4 day): 19.6 pg
- MEAN CORPUSCULAR HEMOGLOBIN CONCENTRATION (96 h, time 4 day): 32.13 G/DL
- MEAN CORPUSCULAR VOLUME (96 h, time 4 day): 60.97 fL
- MONOCYTE (96 h, time 4 day): 1.8%
- NEUTROPHIL (96 h, time 4 day): 11.6%
- PLATELET COUNT (96 h, time 4 day): 1460.67 x10E3/uL
- ALANINE AMINOTRANSFERASE (96 h, time 4 day): 31.33 u/L
- ALBUMIN (96 h, time 4 day): 3.73 G/DL
- ALKALINE PHOSPHATASE (96 h, time 4 day): 296.67 u/L
- ASPARTATE AMINOTRANSFERASE (96 h, time 4 day): 69.67 u/L
- BLOOD UREA NITROGEN (96 h, time 4 day): 16 mg/dL
- CARBON DIOXIDE (96 h, time 4 day): 24 mmol/L
- CHLORIDE (96 h, time 4 day): 107.67 MEQ/L
- CHOLESTEROL (96 h, time 4 day): 75.33 mg/dL
- CREATINE PHOSPHOKINASE (96 h, time 4 day): 411.33 u/L
- CREATININE (96 h, time 4 day): 0.4 mg/dL
- GLUCOSE (96 h, time 4 day): 170.67 mg/dL
- LACTATE DEHYDROGENASE (96 h, time 4 day): 107.33 u/L
- LIPASE (96 h, time 4 day): 18 u/L
- PHOSPHORUS (96 h, time 4 day): 11.1 mg/dL
- POTASSIUM (96 h, time 4 day): 6.2 MEQ/L
- SODIUM (96 h, time 4 day): 148.33 MEQ/L
- TOTAL BILIRUBIN (96 h, time 4 day): 0.4 mg/dL
- TOTAL PROTEIN (96 h, time 4 day): 6.2 G/DL
- URIC ACID (96 h, time 4 day): 1.3 mg/dL
- BASOPHIL (time 6 day): 0.27%
- EOSINOPHIL (time 6 day): 0.3%
- ERYTHROCYTE COUNT (time 6 day): 7.08 x10E6/uL
- HEMATOCRIT (time 6 day): 44.53%
- HEMOGLOBIN (time 6 day): 14.1 G/DL
- LEUKOCYTE COUNT (time 6 day): 12.82 x10E3/uL
- LYMPHOCYTE (time 6 day): 83.7%
- MEAN CORPUSCULAR HEMOGLOBIN (time 6 day): 19.97 pg
- MEAN CORPUSCULAR HEMOGLOBIN CONCENTRATION (time 6 day): 31.7 G/DL
- MEAN CORPUSCULAR VOLUME (time 6 day): 62.9 fL
- MONOCYTE (time 6 day): 2.23%
- NEUTROPHIL (time 6 day): 13.07%
- PLATELET COUNT (time 6 day): 1297.33 x10E3/uL
- BASOPHIL (time 14 day): 0.42%
- EOSINOPHIL (time 14 day): 0.92%
- ERYTHROCYTE COUNT (time 14 day): 8.04 x10E6/uL
- HEMATOCRIT (time 14 day): 52.44%
- HEMOGLOBIN (time 14 day): 15.34 G/DL
- LEUKOCYTE COUNT (time 14 day): 13.75 x10E3/uL
- LYMPHOCYTE (time 14 day): 84.4%
- MEAN CORPUSCULAR HEMOGLOBIN (time 14 day): 19.12 pg
- MEAN CORPUSCULAR HEMOGLOBIN CONCENTRATION (time 14 day): 29.26 G/DL
- MEAN CORPUSCULAR VOLUME (time 14 day): 65.28 fL
- MONOCYTE (time 14 day): 2.18%
- NEUTROPHIL (time 14 day): 11.62%
- PLATELET COUNT (time 14 day): 1231.6 x10E3/uL
- ALANINE AMINOTRANSFERASE (time 6 day): 33 u/L
- ALBUMIN (time 6 day): 4.03 G/DL
- ALKALINE PHOSPHATASE (time 6 day): 331 u/L
- ASPARTATE AMINOTRANSFERASE (time 6 day): 80 u/L
- BLOOD UREA NITROGEN (time 6 day): 16.33 mg/dL
- CARBON DIOXIDE (time 6 day): 23.67 mmol/L
- CHLORIDE (time 6 day): 108.67 MEQ/L
- CHOLESTEROL (time 6 day): 74.67 mg/dL
- CREATINE PHOSPHOKINASE (time 6 day): 413 u/L
- CREATININE (time 6 day): 0.37 mg/dL
- GLUCOSE (time 6 day): 182.67 mg/dL
- LACTATE DEHYDROGENASE (time 6 day): 123 u/L
- LIPASE (time 6 day): 8 u/L
- PHOSPHORUS (time 6 day): 12.5 mg/dL
- POTASSIUM (time 6 day): 6.73 MEQ/L
- SODIUM (time 6 day): 151.67 MEQ/L
- TOTAL BILIRUBIN (time 6 day): 0.37 mg/dL
- TOTAL PROTEIN (time 6 day): 6.83 G/DL
- URIC ACID (time 6 day): 1.77 mg/dL
- ALANINE AMINOTRANSFERASE (time 14 day): 40.4 u/L
- ALBUMIN (time 14 day): 4.2 G/DL
- ALKALINE PHOSPHATASE (time 14 day): 262.8 u/L
- ASPARTATE AMINOTRANSFERASE (time 14 day): 72.4 u/L
- BLOOD UREA NITROGEN (time 14 day): 16.4 mg/dL
- CARBON DIOXIDE (time 14 day): 27.4 mmol/L
- CHLORIDE (time 14 day): 104.4 MEQ/L
- CHOLESTEROL (time 14 day): 63.8 mg/dL
- CREATINE PHOSPHOKINASE (time 14 day): 181 u/L
- CREATININE (time 14 day): 0.42 mg/dL
- GLUCOSE (time 14 day): 154.8 mg/dL
- LACTATE DEHYDROGENASE (time 14 day): 91 u/L
- LIPASE (time 14 day): 11.6 u/L
- PHOSPHORUS (time 14 day): 11.26 mg/dL
- POTASSIUM (time 14 day): 6.38 MEQ/L
- SODIUM (time 14 day): 148.4 MEQ/L
- TOTAL BILIRUBIN (time 14 day): 0.4 mg/dL
- TOTAL PROTEIN (time 14 day): 6.72 G/DL
- URIC ACID (time 14 day): 1.52 mg/dL
